Reference: patent US20160097044A1, “Antimicrobial Enzyme Fusions Reduce Resistance and Kill Intracellular Staphylococcus aureus” (The United States of America, as Represented by the …, priority 2014, published 2016)

Columns and labels:
[1] = system: MRSA; settings: systemically delivered, mouse models; cited from earlier work
[2] = system: MRSA strain NRS382 biofilms; assay: Dynamic biofilm model, Live/Dead viability; type: cell-based, S. aureus; settings: Staphylococcus aureus, 2 h, read-out: viability in dynamic biofilms (percentage of live cells; controls 100%)
Description: Biofilms were pre-stained with the Live/Dead stain (see methods) and viewed with 20× magnification. FIG. 9b depicts bacterial viability. Analysis of bacterial viability in NRS382 dynamic biofilms is based on mean fluorescent intensities of the Live/Dead viability stain when exposed to 100 μg/ml of PGH K-L (1.4 μM), K-L-PTD1 (1.4 μM), or vancomycin (69 μM) at a flow rate of 0.5 ml/min for 2 h and compared to PBS. Error bars represent SEM (N=3) of three independent 100×100 pixel squares identically located in each biofilm z-stack. […]
In order to visualize the viability of S. aureus NRS382 biofilms, each chamber of the flow cell was fluorescently labeled by the Live/Dead BacLight™ staining kit (Invitrogen, Carlsbad, Calif.) for one hour. […] To quantify the viability of S. aureus NRS382 biofilms at various time points in the presence of different treatments, one image at the center of z-series (i.e. center of the biofilm) for each time point was selected to represent each treatment group. Three squares representing 100×100 pixels were drawn in each image and the mean intensity of live (green channel) and dead (red channel) cell populations were calculated by Zen 2010 digital imaging software (Carl Zeiss). […] The percentage of live cells remaining in biofilms after various treatments was statistically analyzed by an unpaired t-test.

Row | SMILES | protection from MRSA bacteremia / survival at 48 hours post infection [1] | viability at 100 µg/mL [2]
1 | Cc1onc(-c2ccccc2)c1C(=O)N[C@@H]1C(=O)N2[C@@H]1SC(C)(C)[C@@H]2C(=O)O [oxacillin] | 20% | –
2 | CN[C@H](CC(C)C)C(=O)N[C@H]1C(=O)N[C@@H](CC(N)=O)C(=O)N[C@H]2C(=O)N[C@H]3C(=O)N[C@H](C(=O)N[C@H](C(=O)O)c4cc(O)cc(O)c4-c4cc3ccc4O)[C@H](O)c3ccc(c(Cl)c3)Oc3cc2cc(c3O[C@@H]2O[C@H](CO)[C@@H](O)[C@H](O)[C@H]2O[C@H]2C[C@](C)(N)[C@H](O)[C@H](C)O2)Oc2ccc(cc2Cl)[C@H]1O [vancomycin] | – | 40%
